Results published in patent US20170137458A1, “OXYSTEROLS FOR USE IN THE TREATMENT AND PREVENTION OF DISEASES CAUSED BY VIRUSES” (priority 2014, published 2017).
Read-outs that look alike come from different tables or passages of the source.

Tests used:
[1] = test system: human rotavirus Wa; test: Infectivity assay for rotavirus repeated on Caco2 cells, strain Wa; type: cell-based; conditions: Caco-2
From the text: The results of the antiviral assays performed treating with 25OHC and 27OHC were confirmed repeating the infectivity assays on Caco2 cells.

[2] = test system: human rotavirus (strain Wa); test: Rotavirus yield reduction assay; type: cell-based
Procedure: The cells were treated at 37° C. with 25-, 27-, 7α-, 7β-hydroxycholesterol or 7-ketocholesterol at 5.6 μM for 20 hours, then washed with medium and infected with the human rotavirus at an MOI of 0.02 (strain Wa) activated with trypsin. After one hour, the cells were washed and fresh medium was added supplemented with 0.5 μg/ml of porcine trypsin. […] The assay was performed in triplicate and the results were confirmed on Caco2 cells. In an alternative protocol, the MA104 cells were treated with oxysterols—at the concentration indicated above—after the viral inoculum. The one-way variance analysis (ANOVA), followed by the Bonferroni test, was used to evaluate the statistical significance of the virus titre differences between the treated and non-treated samples. The significance was fixed at 95%.
The results of the pre-treatment assays are illustrated in FIGS. 5 (MA104 cells) and 6 (Caco2 cells).

[3] = test system: PsV of HPV-16; test: microbe, parasite or virus in culture; type: cell-based, human papillomavirus
[4] = test system: TLR3; test: Quantitative real time RT-PCR of TLR-3 in Caco2 cells; type: cell-based, human; conditions: CaCo2 intestinal cells, 1.9 μM, 30 minutes to 6 hours
Procedure: The Caco2 cells were cultivated in DMEM medium containing 10% serum and seeded in 25 cm^2 flasks (8 million confluence cells). The next day the cells were treated, in DMEM medium containing 2% serum, with 1.9 μM 25OHC or 27OHC (dissolved in ethanol) for 30 minutes, 1, 2, 3, 4, 5 or 6 hours. Extraction of the total RNA was performed using the TRIzol Reagent (Applied Biosystems, Monza, Italy) and the quantity and purity (A260/A280 ratio) of the extracted RNA were spectrophotometrically measured. Subsequently, 2 μg of RNA were retrotranscribed using the High-Capacity cDNA Reverse Transcription Kit (Applied Biosystems). Quantitative RT-PCR was performed with 30 ng of cDNA using the “TaqMan Gene Expression Assay kits” for TLR-3 and β-actin, TaqMan Fast Universal PCR Master Mix, and 7500 Fast Real-Time PCR System (Applied Biosystems). For each gene considered, the threshold cycle (Ct) was determined and the results were normalized using β-actin as a reference gene. The relative quantification was performed using a mathematical method previously published (29). In FIGS. 1a-1b, the results are reported as increment of the genic expression (Fold change, Fc) of the treated samples with respect to the controls.

[5] = test system: LXR; conditions: cited from earlier work
[6] = test system: adenovirus 5; conditions: for example the adenovirus 5; cited from earlier work
[7] = test system: rhinovirus; conditions: cited from earlier work
[8] = test system: human rhinovirus 1A; test: Rhinovirus yield reduction assay; conditions: HeLa cells, 5.6 μM after infection, collected 5 days after the infection
Procedure: Each well was inoculated with 200 μl of a stock of human rhinovirus 1A containing approximately 30 PFU per well and incubated for 1 hour. […] The infected cells and the supernatants were collected 5 days after the infection (when a complete CPE was visible), and titred by means of the standard plaque method, as described above.

[9] = test system: human rotavirus Wa; test: Infectivity assay for rotavirus, MA104 cells, strain Wa
Procedure: (§1) The strains of human rotavirus Wa (ATCC® VR-2018), WI61 (ATCC® VR-2551), HRV 408 (ATCC® VR-2273), HRV 248 (ATCC® VR-2274) and DS-1 (ATCC® VR-2550) were acquired from the American Tissue Culture Collection (ATCC); the viruses were activated with 5 μg/ml porcine pancreatic trypsin of type IX (Sigma, St. Louis, Mo.) for 30 minutes at 37° C. and propagated in MA104 cells using MEM containing 0.5 μg of trypsin per ml as described previously (27).
(§2) The antiviral effectiveness of the oxysterols of the invention was determined by means of infectivity inhibition assay. The assays were performed with confluent monolayers of MA104 cells seeded in plates with 96 wells, as described previously (28). […] The control samples were prepared by treating the cells with culture medium with the addition of equal volumes of ethanol. The cells were then washed with medium, and the rotavirus infection was performed at a multiplicity of infection (MOI) of 0.02. After the infection, the cells were washed with medium and incubated at 37° C. in an incubator humidified at 5% (vol/vol) CO2-95% (vol/vol) of air. After 16 hours, the infected cells were fixed with a cold acetone-methanol mixture (50:50), and the virus titres were determined by means of indirect immunocytochemistry. The inhibition of the virus infectivity was expressed as a percentage comparing the mean number of infective events in the treated and non-treated samples±the standard deviations. Where possible, the values of the oxysterol concentrations able to determine 50% or 90% of the antiviral effect (EC50 and EC90 respectively) were calculated by means of regression analysis using the dose-response curves generated by the experimental data, with the use of PRISM 5.00 (GraphPad Software, San Diego, Calif., USA).

[10] = test system: human rotavirus DS-1; test: Infectivity assay for rotavirus, MA104 cells, strain DS-1
Procedure: as §1, §2

[11] = test system: human rotavirus WI61; test: Infectivity assay for rotavirus, MA104 cells, strain WI61
Procedure: as §1, §2

[12] = test system: human rotavirus HRV 248; test: Infectivity assay for rotavirus, MA104 cells, strain HRV 248
Procedure: as §1, §2

[13] = test system: human rotavirus; test: Target identification by siRNA sensitization (TISS), human rotavirus, Caco2 cells; conditions: oxysterol at its EC50
Procedure: This mechanism of action vis-à-vis the rotavirus was therefore investigated, performing a target identification assay by means of sensitization with short interfering RNA (siRNA). The Caco2 cells (for the experiments with human rotavirus) or the HeLa cells (for the experiments with human papillomavirus) were seeded in a plate with 24 wells; during seeding, the cells were transfected with siRNA specific for OSBP and VAPA (at a concentration of 20 nM). […] After one day, the medium was removed and the cells inoculated with the respective viruses in the same time, temperature and MOI conditions described in the protocols of the infectivity or neutralization assays. The number of infected cells was evaluated as described in the preceding paragraphs.

C[C@H](CCCC(C)(C)O)[C@H]1CC[C@H]2[C@@H]3CC=C4C[C@@H](O)CC[C@]4(C)[C@H]3CC[C@]12C [25OHC, 25-hydroxycholesterol]
EC50 [1]: 190 nM | EC90 [1]: 1260 nM | production of virus progenies ([2]; Caco2 cells, pre-treatment 5.6 μM for 20 hours, collected 48 hours after infection): significantly limit (p<0.05) the production of virus progenies | production of virus progenies ([2]; MA104 cells, post-infection treatment 5.6 μM): confirm the in vitro effectiveness | production of virus progenies ([2]; MA104 cells, pre-treatment 5.6 μM for 20 hours, collected 48 hours after infection): significantly limit (p<0.05) the production of virus progenies | EC50 ([3]; C33A cells, treated 16 hours before PsV, read-out: EC50): 2060 nM | EC50 ([3]; Human papillomavirus, HeLa): 2190 nM | EC50 ([3]; Human papillomavirus, SiHa): 14800 nM | TLR3 expression [4]: marked hyperexpression of TLR3 | LXR ligand activity [5]: optimal ligands of LXR | effectiveness on naked viruses [6]: not effective on naked viruses | replication of the genoma of the rhinovirus [7]: able to inhibit replication of the genoma | rhinovirus entry into the host cell [7]: not entry into the host cell | production of viral progenies [8]: totally inhibit the production of viral progenies | EC50 [9]: 160 nM | EC90 [9]: 1370 nM | EC50 [10]: 270 nM | EC90 [10]: 5770 nM | EC50 [11]: 90 nM | EC90 [11]: 280 nM | EC50 [12]: 110 nM | EC90 [12]: 1260 nM | antiviral activity in cells with OSBP silenced ([13]; OSBP siRNA 20 nM): higher | antiviral activity in cells with VAP-A silenced ([13]; VAPA siRNA 20 nM): higher
